Among the data in patent US8426604B2 (Janssen Pharmaceutica NV, priority 2010, dated 2013) are EC50 values, retold here.

The structures appear in SMILES notation.

For the experiment, the target named is T1, ERR1 (also known as ERR-α or ERR-1) (Homo sapiens, UniProt P11474).
T1 sequence (P11474 193-421 limits assumed): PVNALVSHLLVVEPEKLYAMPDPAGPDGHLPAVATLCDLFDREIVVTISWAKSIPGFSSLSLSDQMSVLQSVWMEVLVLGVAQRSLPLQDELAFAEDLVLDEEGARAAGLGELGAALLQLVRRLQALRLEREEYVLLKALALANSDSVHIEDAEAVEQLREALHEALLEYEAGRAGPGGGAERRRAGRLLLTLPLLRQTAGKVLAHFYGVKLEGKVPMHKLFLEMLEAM
Put plainly: TR-FRET assay (disruption of co-activator peptide binding). Format: biochemical. The following applies: 6His-tagged ERR1LBD, GST-hSRC2 co-activator peptide; average of 3 independent experiments. As for the experimental part: Time-Resolved Fluorescence Resonance Energy Transfer (TR-FRET) experiments were performed to examine the functional response of ERR1 (also known as ERR-α or ERR-1) ligands. The TR-FRET assay described herein relied on the conformation of ERR1 for binding to a co-activator peptide: when a test compound binds to ERR1 and alters its conformation, it can disrupt the binding of the co-activator peptide. The components of this homogeneous secondary assay included: the ^6His-tagged-ERR1LBD, a GST-labeled-hSRC2 co-activator polypeptide and a fluorescent donor/acceptor pair from CIS bio international htrf/bioassays (Bedford, Mass.) using both an α-GST Europium Cryptate (Eu) label and an α^6His-XL665 (allophycocyanin) fluorophore.
For TR-FRET measurements, the reaction was buffered in 25 mM Tris pH 8, 2.5 mM Hepes, 20 mM KCl, 1 mM DTT, and 0.05 mg/mL BSA (-lipids). The final concentrations of reagents were 6 nM of ERR1LBD, 6 nM GST-SRC-2 peptide, 30 nM Eu cryptate, and 7.5 nM XL665. Reactions were allowed to reach equilibrium at 25° C. for 4-18 hours before collecting data on the Analyst from LJL Biosystems (Molecular Devices Sunnyvale, Calif.). As a time-resolved method, the samples were excited at […] and emission was collected for 1 ms at both 615 and 665 nm with delays of 400 and 75 μs, respectively. Dose response curves were fitted using a hyperbolic equation and the data reported is the average of 3 independent experiments.
(Time-resolved FRET reads energy transfer from a long-lived donor to a nearby acceptor.)
Turning to `COC[C@@H]1C[C@H](N(C)C2=NC(=O)/C(=C/c3ccc4c(cnn4Cc4ccc(Cl)cc4C(F)(F)F)c3)S2)CN1` (stereo in doubt) [Compound 41, 5-[1-(4-Chloro-2-trifluoromethyl-benzyl)-1H-indazol-5-ylmethylene]-2-[(5-methoxymethyl-pyrrolidin-3-yl)-methyl-amino]-thiazol-4-one], a half-maximal response (EC50) required 0.024 µM.
The same measure for `CN(C1=NC(=O)/C(=C/c2ccc3c(cnn3Cc3ccc(Cl)cc3C(F)(F)F)c2)S1)[C@@H]1CN[C@H](CO)C1` (stereo in doubt) [Compound 42, 5-[1-(4-Chloro-2-trifluoromethyl-benzyl)-1H-indazol-5-ylmethylene]-2-[(5-hydroxymethyl-pyrrolidin-3-yl)-methyl-amino]-thiazol-4-one]: 0.024 µM.
Then `CN(C)C1=NC(=O)/C(=C/c2ccc3c(cnn3Cc3ccc(C(F)(F)F)cc3C(F)(F)F)c2)S1` [Compound 1, 5-[1-(2,4-Bis-trifluoromethyl-benzyl)-1H-indazol-5-ylmethylene]-2-dimethylamino-thiazol-4-one], with 0.012 µM.
The same measure for `CN(C)CCN(C)C1=NC(=O)/C(=C/c2ccc3c(cnn3Cc3ccc(C(F)(F)F)cc3C(F)(F)F)c2)S1` [Compound 2, 5-[1-(2,4-Bis-trifluoromethyl-benzyl)-1H-indazol-5-ylmethylene]-2-[(2-dimethylamino-ethyl)-methyl-amino]-thiazol-4-one]: 0.007 µM; for `N#Cc1ccc(Cn2ncc3cc(/C=C4\SC(N(CCO)CCO)=NC4=O)ccc32)c(C(F)(F)F)c1` [Compound 3, 4-(5-{2-[Bis-(2-hydroxy-ethyl)-amino]-4-oxo-4H-thiazol-5-ylidenemethyl}-indazol-1-ylmethyl)-3-trifluoromethyl-benzonitrile]: 0.12 µM.
In the case of `O=C1N=C(N(CCO)CCO)S/C1=C\c1ccc2c(cnn2Cc2ccc(Cl)cc2C(F)(F)F)c1` [Compound 4, 2-[Bis-(2-hydroxy-ethyl)-amino]-5-[1-(4-chloro-2-trifluoromethyl-benzyl)-1H-indazol-5-ylmethylene]-thiazol-4-one], the EC50 (as a rule, the concentration needed to bring the measured effect to its halfway point) is 0.01 µM.
Compound `CN(C)CCN(C)C1=NC(=O)/C(=C/c2ccc3c(cnn3Cc3ccc(Cl)cc3C(F)(F)F)c2)S1` [Compound 5, 5-[1-(4-Chloro-2-trifluoromethyl-benzyl)-1H-indazol-5-ylmethylene]-2-[(2-dimethylamino-ethyl)-methyl-amino]-thiazol-4-one] came in with an EC50 of 0.0051 µM.
The compound `CN(CC(O)CO)C1=NC(=O)/C(=C/c2ccc3c(cnn3Cc3ccc(Cl)cc3C(F)(F)F)c2)S1` (stereo not shown) [Compound 6, 5-[1-(4-Chloro-2-trifluoromethyl-benzyl)-1H-indazol-5-ylmethylene]-2-[(2,3-dihydroxy-propyl)-methyl-amino]-thiazol-4-one] registered an EC50 of 0.0036 µM.
The same measure for `CN(C)CCN(C)C1=NC(=O)/C(=C/c2ccc3c(cnn3Cc3ccc(S(C)(=O)=O)cc3Cl)c2)S1` [Compound 7, 5-[1-(2-Chloro-4-methanesulfonyl-benzyl)-1H-indazol-5-ylmethylene]-2-[(2-dimethylamino-ethyl)-methyl-amino]-thiazol-4-one]: 0.83 µM.
`CN(CC(O)CO)C1=NC(=O)/C(=C/c2ccc3c(cnn3Cc3ccc(S(C)(=O)=O)cc3C(F)(F)F)c2)S1` (stereo not shown) [Compound 8, 2-[(2,3-Dihydroxy-propyl)-methyl-amino]-5-[1-(4-methanesulfonyl-2-trifluoromethyl-benzyl)-1H-indazol-5-ylmethylene]-thiazol-4-one] gave an EC50 of 0.52 µM.
Compound `COCCN(CCOC)C1=NC(=O)/C(=C/c2ccc3c(cnn3Cc3ccc(OC)cc3C(F)(F)F)c2)S1` [Compound 9, 2-[Bis-(2-methoxy-ethyl)-amino]-5-[1-(4-methoxy-2-trifluoromethyl-benzyl)-1H-indazol-5-ylmethylene]-thiazol-4-one] displayed an EC50 of 0.0041 µM.
For `COCCN(CCOC)C1=NC(=O)/C(=C/c2ccc3c(cnn3Cc3ncc(C(F)(F)F)cc3Cl)c2)S1` [Compound 10, 2-[Bis-(2-methoxy-ethyl)-amino]-5-[1-(3-chloro-5-trifluoromethyl-pyridin-2-ylmethyl)-1H-indazol-5-ylmethylene]-thiazol-4-one], the EC50 stood at 0.8 µM.
Then `CN(CC(O)CO)C1=NC(=O)/C(=C/c2ccc3c(cnn3Cc3ncc(C(F)(F)F)cc3Cl)c2)S1` (stereo not shown) [Compound 11, 5-[1-(3-Chloro-5-trifluoromethyl-pyridin-2-ylmethyl)-1H-indazol-5-ylmethylene]-2-[(2,3-dihydroxy-propyl)-methyl-amino]-thiazol-4-one], with 1.6 µM; and `O=C1N=C(N(CCO)CCO)S/C1=C\c1ccc2c(cnn2Cc2ncc(C(F)(F)F)cc2Cl)c1` [Compound 12, 2-[Bis-(2-hydroxy-ethyl)-amino]-5-[1-(3-chloro-5-trifluoromethyl-pyridin-2-ylmethyl)-1H-indazol-5-ylmethylene]-thiazol-4-one], with 3.9 µM.
Then `COc1ccc(Cn2ncc3cc(/C=C4\SC(N(C)CC(O)CO)=NC4=O)ccc32)c(C(F)(F)F)c1` (stereo not shown) [Compound 13, 2-[(2,3-Dihydroxy-propyl)-methyl-amino]-5-[1-(4-methoxy-2-trifluoromethyl-benzyl)-1H-indazol-5-ylmethylene]-thiazol-4-one], with 0.0036 µM.
In turn, `COCCN(CCOC)C1=NC(=O)/C(=C/c2ccc3c(cnn3Cc3ccc(Cl)cc3C(F)(F)F)c2)S1` [Compound 14, 2-[Bis-(2-methoxy-ethyl)-amino]-5-[1-(4-chloro-2-trifluoromethyl-benzyl)-1H-indazol-5-ylmethylene]-thiazol-4-one] came in with a concentration for a half-maximal effect (EC50) of 0.0033 µM.
On to `CN(C1=NC(=O)/C(=C/c2ccc3c(cnn3Cc3ccc(C(F)(F)F)cc3C(F)(F)F)c2)S1)C1CCNCC1` [Compound 17, 5-[1-(2,4-Bis-trifluoromethyl-benzyl)-1H-indazol-5-ylmethylene]-2-(methyl-piperidin-4-yl-amino)-thiazol-4-one], for which the response was half-maximal at 0.037 µM (EC50).
The same measure for `CN(CCN1CCCC1)C1=NC(=O)/C(=C/c2ccc3c(cnn3Cc3ccc(Cl)cc3C(F)(F)F)c2)S1` [Compound 18, 5-[1-(4-Chloro-2-trifluoromethyl-benzyl)-1H-indazol-5-ylmethylene]-2-[methyl-(2-pyrrolidin-1-yl-ethyl)amino]-thiazol-4-one]: 0.013 µM; for `CN1CCC(N(C)C2=NC(=O)/C(=C/c3ccc4c(cnn4Cc4ccc(Cl)cc4C(F)(F)F)c3)S2)CC1` [Compound 19, 5-[1-(4-Chloro-2-trifluoromethyl-benzyl)-1H-indazol-5-ylmethylene]-2-[methyl-(1-methyl-piperidin-4-yl)-amino]-thiazol-4-one]: 0.0081 µM; for `CON(C)C1=NC(=O)/C(=C/c2ccc3c(cnn3Cc3ccc(Cl)cc3C(F)(F)F)c2)S1` [Compound 21, 5-[1-(4-Chloro-2-trifluoromethyl-benzyl)-1H-indazol-5-ylmethylene]-2-(methoxy-methyl-amino)-thiazol-4-one]: 0.024 µM.
`CN(CC(=O)O)C1=NC(=O)/C(=C/c2ccc3c(cnn3Cc3ccc(Cl)cc3C(F)(F)F)c2)S1` [Compound 22, ({5-[1-(4-Chloro-2-trifluoromethyl-benzyl)-1H-indazol-5-ylmethylene]-4-oxo-4,5-dihydro-thiazol-2-yl}-methyl-amino)-acetic acid]: the EC50 came to 0.013 µM.
`CN1CCN(CCN(C)C2=NC(=O)/C(=C/c3ccc4c(cnn4Cc4ccc(Cl)cc4C(F)(F)F)c3)S2)CC1` [Compound 23, 5-[1-(4-Chloro-2-trifluoromethyl-benzyl)-1H-indazol-5-ylmethylene]-2-{methyl-[2-(4-methyl-piperazin-1-yl)-ethyl]-amino}-thiazol-4-one] had an EC50 of 0.009 µM.
Then `COCCN1CCC(N(C)C2=NC(=O)/C(=C/c3ccc4c(cnn4Cc4ccc(Cl)cc4C(F)(F)F)c3)S2)CC1` [Compound 24, 5-[1-(4-Chloro-2-trifluoromethyl-benzyl)-1H-indazol-5-ylmethylene]-2-{[1-(2-methoxy-ethyl)-piperidin-4-yl]-methyl-amino}-thiazol-4-one], with 0.009 µM.
The same measure for `CN(C1=NC(=O)/C(=C/c2ccc3c(cnn3Cc3ccc(Cl)cc3C(F)(F)F)c2)S1)C1CCN(CCF)CC1` [Compound 25, 5-[1-(4-Chloro-2-trifluoromethyl-benzyl)-1H-indazol-5-ylmethylene]-2-{[1-(2-fluoro-ethyl)-piperidin-4-yl]-methyl-amino}-thiazol-4-one]: 0.011 µM; for `CN(CCN1CCOCC1)C1=NC(=O)/C(=C/c2ccc3c(cnn3Cc3ccc(Cl)cc3C(F)(F)F)c2)S1` [Compound 26, 5-[1-(4-Chloro-2-trifluoromethyl-benzyl)-1H-indazol-5-ylmethylene]-2-[methyl-(2-morpholin-4-yl-ethyl)-amino]-thiazol-4-one]: 0.021 µM.
